The record followed here is ChEMBL document CHEMBL3286135, “Antiviral C-25 epimers of 26-acetoxy steroids from the South China Sea gorgonian Echinogorgia rebekka” (J Nat Prod, 2014).

Data set [1] relates to Respiratory syncytial virus. Description: Antiviral activity against Respiratory syncytial virus infected in human Hep2 cells assessed as virus-induced cytopathicity by XTT assay. Format: functional, organism-based. As to conditions: HEp-2. In general terms: Cytopathic effects are the visible damage that an infection or toxin causes in cultured cells.
Data set [2] is described as follows: Cytotoxicity against mock-infected human Hep2 cells by XTT assay. Format: cell-based, HEp-2. Particulars: read-out: TC50 (the source's name). A general note: Tetrazolium dyes change colour on reduction, which living cells bring about.
Data set [3] can be described thus: Therapeutic ratio of TC50 for mock-infected human Hep2 cells to IC50 for Respiratory syncytial virus infected in human Hep2 cells. Format: ADME, cell-based, HEp-2. Particulars: read-out: TI.
Another data set deals with Bacillus cereus. In words: Antibacterial activity against Bacillus cereus by broth dilution assay. Format: functional, organism-based. (Broth dilution looks for growth in wells or tubes with falling amounts of substance.)
Data set [4] deals with Tetragenococcus halophilus. Description: Antibacterial activity against Tetragenococcus halophilus by broth dilution assay. Format: functional.
Data set [5] deals with Staphylococcus epidermidis. In words: Antibacterial activity against Staphylococcus epidermidis by broth dilution assay. Format: functional, organism-based.
In the next data set the test system is Staphylococcus aureus. In words: Antibacterial activity against Staphylococcus aureus by broth dilution assay. Format: functional, organism-based.
The subject of the next data set is Escherichia coli. Description: Antibacterial activity against Escherichia coli by broth dilution assay. Format: functional, organism-based.
The next data set has as its system Pseudomonas putida. Description: Antibacterial activity against Pseudomonas putida by broth dilution assay. Format: functional, organism-based.
Another data set deals with Nocardia brasiliensis. In words: Antibacterial activity against Nocardia brasiliensis by broth dilution assay. Format: functional, organism-based.
For another data set, the system named is Vibrio parahaemolyticus. In words: Antibacterial activity against Vibrio parahaemolyticus by broth dilution assay. Format: functional, organism-based.
In a further data set the test system is HL-60. In words: Cytotoxicity against human HL60 cells by MTT assay. Format: functional, cell-based.
In the next data set the test system is K562. Description: Cytotoxicity against human K562 cells by MTT assay. Format: functional, cell-based.
The next data set deals with HeLa. In words: Cytotoxicity against human HeLa cells by SRB assay. Format: functional, cell-based.
A further data set deals with A549. In words: Cytotoxicity against human A549 cells by SRB assay. Format: functional, cell-based.

Molecules are shown by their SMILES. pIC50: −log10 of the molar value. Activity calls are given as the source filed them. No cut-off for these calls is given here. Where only a bound is given, the exact number is not on record here.

For the compound `CC(=O)OC[C@@H](C)[C@H](C)/C=C/[C@@H](C)[C@H]1CC[C@H]2[C@@H]3CC(=O)[C@@]4(O)C[C@@H](O)CC[C@]4(C)[C@H]3CC[C@]12C`, the values for the pIC50 (in data set [1]; with HL-60; in the data set on K562) were 6.72, 5.05 and 5.20, respectively. Also, the CC50 in data set [2] amounted to 0.38 µM. Further, the selectivity ratio in data set [3] stood at 2. Also, the outcome (in the data set with Bacillus cereus; in data set [4]; in [5]; in the data set with Staphylococcus aureus; with Escherichia coli; in the data set with Pseudomonas putida) was inactive. The outcome in the data set with Nocardia brasiliensis and in the data set with Vibrio parahaemolyticus was inactive.
As for `CC(=O)OCC(C)/C=C/[C@@H](C)[C@H]1CC[C@H]2[C@@H]3CC(=O)[C@@]4(O)C[C@@H](O)CC[C@]4(C)[C@H]3CC[C@]12C` (stereo not given in full), the negative-log IC50 (pIC50) (commonly the negative decadic logarithm of the IC50, by convention in mol/L) was 5.49 in data set [1] and 5.38 in the data set with K562. Further, the CC50 in data set [2] came out at 12.9 µM. Moreover, the selectivity ratio in [3] was 4. Moreover, the outcome (with Bacillus cereus; in [4]; in data set [5]; in the data set on Staphylococcus aureus; with Escherichia coli; in the data set with Pseudomonas putida) was inactive. Also, the outcome with Nocardia brasiliensis and in the data set on Vibrio parahaemolyticus was inactive.
Turning to `NC(=O)c1ncn([C@@H]2O[C@H](CO)[C@@H](O)[C@H]2O)n1` [RIBAVIRIN], the pIC50 in data set [1] was 4.69. In addition, the CC50 in [2] is above 3000 µM. In data set [3], the selectivity ratio is above 147.
For `CC(=O)OC[C@H](C)[C@H](C)/C=C/[C@@H](C)[C@H]1CC[C@H]2[C@@H]3CC(=O)[C@@]4(O)C[C@@H](O)CC[C@]4(C)[C@H]3CC[C@]12C`, the pIC50 in data set [1] is 6.72. Besides, the CC50 in data set [2] was determined as 24.4 µM. In addition, in data set [3], the selectivity ratio turned out to be 128. Also, the outcome (in the data set with Bacillus cereus; in data set [4]; in [5]; in the data set with Staphylococcus aureus; in the data set on Escherichia coli; in the data set on Pseudomonas putida) was inactive. Also, the outcome with Nocardia brasiliensis, in the data set with Vibrio parahaemolyticus, in the data set on HL-60, in the data set with K562, in the data set with HeLa and with A549 was inactive.
`CC(=O)OC[C@@H](C)C/C=C/[C@@H](C)[C@H]1CC[C@H]2[C@@H]3CC(=O)[C@@]4(O)C[C@@H](O)CC[C@]4(C)[C@H]3CC[C@]12C`: the pIC50 in [1] was 6.11; with K562, 6.07. For the same compound, in data set [2], the CC50 turned out to be 12.6 µM. In addition, the selectivity ratio in data set [3] came to 16. Also, the outcome (in the data set with Bacillus cereus; in [4]; in data set [5]; in the data set on Staphylococcus aureus; with Escherichia coli; in the data set with Pseudomonas putida) was inactive. The result in the data set with Nocardia brasiliensis and in the data set on Vibrio parahaemolyticus was inactive.
